Source: PubChem BioAssay AID248 (DTP/NCI, 2004)
Several values for one entry are separate records, joined by “and”; a condition that tells them apart may be missing. Equal entries are not always repeated. Toxic doses and inconclusive results are not listed.

Tested on: L1210 leukemia ip in BDF1 mice, survival T/C
Assay: NCI In Vivo Anticancer Drug Screen. Data for tumor model L1210 Leukemia (intraperitoneal) in B6D2F1 (BDF1) mice
Conditions: endpoint: mean survival time, higher = longer survival
Method in brief: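 Value reflects the ratio of survival in compound-treated mice to survival in vehicle-treated controls, with both groups carrying the same transplanted tumor.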

[1] = dose: 50.0 mg/kg/injection, schedule: Q04DX002 (ip), vehicle: Klucel (hydroxypropylcellulose) (HPC)
[2] = dose: 100.0 mg/kg/injection, schedule: Q01DX009 (ip), vehicle: Klucel (hydroxypropylcellulose) (HPC)
[3] = dose: 100.0 mg/kg/injection, schedule: Q04DX002 (ip), vehicle: Klucel (hydroxypropylcellulose) (HPC)
[4] = dose: 200.0 mg/kg/injection, schedule: Q01DX009 (ip), vehicle: Klucel (hydroxypropylcellulose) (HPC)
[5] = dose: 400.0 mg/kg/injection, schedule: Q01DX009 (ip), vehicle: Klucel (hydroxypropylcellulose) (HPC)
[6] = dose: 100.0 mg/kg/injection, schedule: Q01DX009 (ip), vehicle: saline
[7] = dose: 100.0 mg/kg/injection, schedule: Q04DX003 (ip), vehicle: saline
[8] = dose: 200.0 mg/kg/injection, schedule: Q01DX009 (ip), vehicle: saline
[9] = dose: 200.0 mg/kg/injection, schedule: Q04DX003 (ip), vehicle: saline
[10] = dose: 100.0 mg/kg/injection, schedule: Q01DX001 (ip), vehicle: saline
[11] = dose: 200.0 mg/kg/injection, schedule: Q01DX001 (ip), vehicle: saline
[12] = dose: 400.0 mg/kg/injection, schedule: Q01DX001 (ip), vehicle: saline
[13] = dose: 100.0 mg/kg/injection, schedule: Q04DX003 (ip), vehicle: Klucel (hydroxypropylcellulose) (HPC)
[14] = dose: 200.0 mg/kg/injection, schedule: Q04DX003 (ip), vehicle: Klucel (hydroxypropylcellulose) (HPC)
[15] = dose: 50.0 mg/kg/injection, schedule: Q01DX001 (ip), vehicle: saline
[16] = dose: 50.0 mg/kg/injection, schedule: Q01DX001 (ip), vehicle: Klucel (hydroxypropylcellulose) (HPC)
[17] = dose: 200.0 mg/kg/injection, schedule: Q01DX001 (ip), vehicle: Klucel (hydroxypropylcellulose) (HPC)
[18] = dose: 100.0 mg/kg/injection, schedule: Q01DX001 (ip), vehicle: Klucel (hydroxypropylcellulose) (HPC)
[19] = dose: 400.0 mg/kg/injection, schedule: Q01DX001 (ip), vehicle: Klucel (hydroxypropylcellulose) (HPC)

CN(C)N=Nc1cc2c(cc1O)CC[C@@H]1[C@@H]2CC[C@]2(C)C(=O)CC[C@@H]12
T/C (dose: 25.0 mg/kg/injection, schedule: Q01DX009 (ip), vehicle: Klucel (hydroxypropylcellulose) (HPC)): 97 % of control
T/C (dose: 50.0 mg/kg/injection, schedule: Q01DX009 (ip), vehicle: Klucel (hydroxypropylcellulose) (HPC)): 90 % of control
T/C [1]: 90 % of control
T/C [2]: 110 % of control
T/C [3]: 90 % of control
T/C [4]: 103 % of control
T/C (dose: 200.0 mg/kg/injection, schedule: Q04DX002 (ip), vehicle: Klucel (hydroxypropylcellulose) (HPC)): 87 % of control
T/C [5]: 96 % of control

CCCOC(=O)CSC#N
T/C (dose: 5.0 mg/kg/injection, schedule: Q01DX001 (ip), vehicle: saline): 106 % of control
T/C (dose: 10.0 mg/kg/injection, schedule: Q01DX001 (ip), vehicle: saline): 100 % of control

CCCOC(CN)C(Cl)(Cl)Cl (stereo unspecified)
T/C (dose: 50.0 mg/kg/injection, schedule: Q01DX009 (ip), vehicle: saline): 98 % of control
T/C [6]: 96 % of control
T/C [7]: 97 % of control
T/C [8]: 96 % of control
T/C [9]: 92 % of control

NC(=O)COc1c(F)c(F)c(F)c(F)c1F
T/C (dose: 100.0 mg/kg/injection, schedule: Q01DX009 (ip), vehicle: saline with Tween-80): 101 % of control
T/C (dose: 200.0 mg/kg/injection, schedule: Q01DX009 (ip), vehicle: saline with Tween-80): 101 % of control
T/C (dose: 400.0 mg/kg/injection, schedule: Q01DX009 (ip), vehicle: saline with Tween-80): 97 % of control

CCC/C=C\COc1ccc(C(=O)OCC)cc1
T/C (dose: 100.0 mg/kg/injection, schedule: Q04DX002 (ip), vehicle: other): 111 % of control
T/C (dose: 200.0 mg/kg/injection, schedule: Q04DX002 (ip), vehicle: other): 108 % of control
T/C (dose: 400.0 mg/kg/injection, schedule: Q04DX002 (ip), vehicle: other): 97 % of control

Cc1cc(C)c2c(c1)CC2NC(=O)c1ccccc1 (stereo unspecified)
T/C (dose: 25.0 mg/kg/injection, schedule: Q04DX002 (ip), vehicle: Klucel (hydroxypropylcellulose) (HPC)): 100 % of control
T/C [1]: 106 % of control
T/C [3]: 95 % of control

Cc1cccc(N2CCC3(CC2)C(=O)NC(=S)NC3=O)c1
T/C [10]: 104 % of control
T/C [11]: 94 % of control
T/C [12]: 98 % of control

Cc1ccc(C)c(NC(=O)N(CCO)C2CCCCC2)c1
T/C [2]: 98 % of control
T/C [13]: 104 % of control
T/C [4]: 95 % of control
T/C [14]: 103 % of control
T/C [5]: 90 % of control
T/C (dose: 400.0 mg/kg/injection, schedule: Q04DX003 (ip), vehicle: Klucel (hydroxypropylcellulose) (HPC)): 95 % of control

Cn1c(=O)c2c(nc(N/N=C/c3cccc4ccccc34)n2C)n(C)c1=O
T/C (dose: 44.0 mg/kg/injection, schedule: Q01DX Z (ip), vehicle: saline): 90 % of control
T/C (dose: 66.0 mg/kg/injection, schedule: Q01DX Z (ip), vehicle: saline): 94 % of control
T/C (dose: 100.0 mg/kg/injection, schedule: Q01DX Z (ip), vehicle: saline): 92 % of control

Cc1[nH]c2ccc(C(C)(C)c3ccccc3)cc2c1C
T/C [10]: 98 % of control
T/C [11]: 91 % of control
T/C [12]: 88 % of control

CCOC(=O)C(C)(C)[Si](C)(C)C
T/C [15]: 97 % of control
T/C [10]: 103 % of control
T/C [11]: 97 % of control
T/C [12]: 97 % of control

Cc1nc(N)[nH]c(=O)c1CCCNC(=O)c1ccc(C(=O)CBr)cc1
T/C [16]: 90 % of control
T/C [17]: 93 % of control

Nc1ncnc2nc(-c3ccc(-c4ccccc4)cc3)[nH]c12
T/C [16]: 92 % of control
T/C [18]: 88 % of control
T/C [17]: 97 % of control

N#CC(N)=NC1CCC(C2CCC(O)CC2)CC1 (stereo unspecified)
T/C [2]: 94 % of control
T/C [4]: 96 % of control
T/C [5]: 96 % of control

CC1(C)SC2C(NC(=O)Cc3ccccc3)C(=O)N2C1C(=O)O (stereo unspecified)
T/C [15]: 104 % of control
T/C [10]: 98 % of control and 107 % of control
T/C [7]: 101 % of control
T/C [11]: 96 % of control and 107 % of control
T/C [9]: 104 % of control
T/C [12]: 98 % of control
T/C (dose: 400.0 mg/kg/injection, schedule: Q04DX003 (ip), vehicle: saline): 104 % of control

O=[N+]([O-])c1cc(S(=O)(=O)c2ccccc2)ccc1S(=O)(=O)c1ccccc1
T/C (dose: 50.0 mg/kg/injection, schedule: Q01DX005 (ip), vehicle: saline with Tween-80): 99 % of control
T/C (dose: 100.0 mg/kg/injection, schedule: Q01DX005 (ip), vehicle: saline with Tween-80): 94 % of control
T/C (dose: 400.0 mg/kg/injection, schedule: Q01DX005 (ip), vehicle: saline with Tween-80): 89 % of control

NC(=S)Cc1ccccc1
T/C [18]: 91 % of control
T/C [17]: 87 % of control
T/C [19]: 100 % of control

COc1cc2c(cc1OC)C1(NCC2)C(=O)c2ccccc2C1=O
T/C [18]: 100 % of control
T/C [17]: 106 % of control
T/C [19]: 117 % of control

CCOc1cc(C=Nc2cc(Cl)c(O)c(Cl)c2)ccc1N(CCCl)CCCl
T/C (dose: 5.0 mg/kg/injection, schedule: Q01DX009 (ip), vehicle: carboxymethylcellulose (CMC)): 114 % of control
T/C (dose: 5.0 mg/kg/injection, schedule: Q01DX009 (ip), vehicle: saline): 105 % of control
T/C (dose: 10.0 mg/kg/injection, schedule: Q01DX009 (ip), vehicle: saline): 106 % of control
T/C (dose: 13.0 mg/kg/injection, schedule: Q01DX009 (ip), vehicle: carboxymethylcellulose (CMC)): 120 % of control
T/C (dose: 25.0 mg/kg/injection, schedule: Q01DX001 (ip), vehicle: saline): 109 % of control
T/C (dose: 44.0 mg/kg/injection, schedule: Q01DX001 (ip), vehicle: carboxymethylcellulose (CMC)): 118 % of control
T/C (dose: 44.0 mg/kg/injection, schedule: Q01DX009 (ip), vehicle: other): 113 % of control
T/C [15]: 116 % of control
T/C (dose: 100.0 mg/kg/injection, schedule: Q01DX001 (ip), vehicle: carboxymethylcellulose (CMC)): 150 % of control

CN(C)CN1C(=O)c2ccccc2C1=O
T/C [2]: 103 % of control
T/C [4]: 100 % of control
T/C [5]: 104 % of control

O=C1OC(c2ccccc2)=NC1c1ccccc1 (stereo unspecified)
T/C [6]: 95 % of control
T/C (dose: 100.0 mg/kg/injection, schedule: Q04DX003 (ip), vehicle: carboxymethylcellulose (CMC)): 101 % of control
T/C [8]: 97 % of control
T/C (dose: 200.0 mg/kg/injection, schedule: Q04DX003 (ip), vehicle: carboxymethylcellulose (CMC)): 95 % of control
T/C (dose: 400.0 mg/kg/injection, schedule: Q01DX009 (ip), vehicle: saline): 97 % of control
T/C (dose: 400.0 mg/kg/injection, schedule: Q04DX003 (ip), vehicle: carboxymethylcellulose (CMC)): 97 % of control

CCCCCCCCCCCCCCCC(=O)NCCO
T/C (dose: 50.0 mg/kg/injection, schedule: Q01DX009 (ip), vehicle: saline sonified): 96 % of control
T/C (dose: 50.0 mg/kg/injection, schedule: Q04DX003 (ip), vehicle: Klucel (hydroxypropylcellulose) (HPC)): 91 % of control
T/C (dose: 100.0 mg/kg/injection, schedule: Q01DX009 (ip), vehicle: saline sonified): 91 % of control
T/C [13]: 106 % of control
T/C (dose: 200.0 mg/kg/injection, schedule: Q01DX009 (ip), vehicle: saline sonified): 96 % of control
T/C [14]: 96 % of control and 89 % of control
